# According to publication PMC8443589, “Modelling human liver fibrosis in the context of non-alcoholic steatohepatitis using a microphysiological system” (Communications Biology, 2021):
# Several values for one entry are separate records, joined by “and”; a condition that tells them apart may be missing. Equal entries are not always repeated.
# What was measured:
# [1] = test system: liver MPS NASH model + TGFβ (PHH, KC and HSC co-cultures, high fat); experiment: Secreted cytokine profile of enhanced liver MPS NASH model with TGFβ dosed with OCA or ELF (Fig 6a); assay type: cell-based, human; settings: for IL-1RA production, fold change compared to control / IL-4 production, fold change compared to control / IL-6 production, fold change compared to control / IL-8 production, fold change compared to control / IP-10 production, fold change compared to control / MCP-1 production, fold change compared to control / MIP-1a production, fold change compared to control / MIP-1b production, fold change compared to control / VEGF production, fold change compared to control: vs NASH + TGFβ control
# Text: (§1) The systems biology approach identified TGFβ to be a key driver in creating a more advanced NASH phenotype in the MPS model, with enhanced fibrotic markers and reduced liver function. […] Therefore, we explored how effective pharmacological intervention would be for NASH microtissues with high NPC numbers supplemented with TGFβ and exposed them to varying concentrations of OCA and ELF QD as previously described (Supp. Fig. 6a). […] OCA had the greatest effect on IL-1Rα whereas ELF had the greatest effect on MCP-1 reflecting the fact that while both candidate drugs have anti-inflammatory properties, but their mechanisms of action are different. […] Finally, we used our quantitative fibrosis imaging assay to assess the effect of each candidate drug on collagen-1 deposition and α-SMA expression (Fig. 6c). […] Both candidate drugs caused a significant reduction in collagen-1 deposition and α-SMA expression, with the highest concentrations of OCA and ELF causing an 80% reduction in α-SMA expression and a 75% reduction in collagen-1 deposition (Fig. 6c).
# (§2) Fig. 6 Using enhanced liver MPS NASH model with TGFβ, Obeticholic acid and Elafibranor modulate disease phenotype to a greater extent than in standard NASH model. PHH, KC and HSC co-cultures were cultured in the MPS platform under high-fat conditions and dosed with varying concentrations of Obeticholic acid (OCA) and Elafibranor (ELF) QD or vehicle control for 10 days, following an initial 4-day pre-culture phase. Throughout the compound dosing period TGFβ was also dosed onto all microtissues (NASH only vehicle control samples were also included in the study for comparison, which were not treated with TGFβ or dosed with any compound). a The secreted cytokine profile from treated liver microtissues was compared to determine the effects of each compound on the inflammatory profile of the liver with samples analysed at day 8 and 14 of the culture. Data were normalised by Z-transformation to allow comparison of all analytes (white = undetected). b The expression of fibrosis-associated biomarkers was analysed on day 14 media samples and compared to NASH + TGFβ control samples. c Liver microtissues were stained for collagen-type I, α-SMA, nuclei (DAPI), phalloidin (green) and imaged by confocal microscopy. Representative images are shown and scale bars 200 µm. Staining of microtissues was quantified by measuring total fluorescence intensity throughout individual microtissues, each data point represents an average of all microtissues per MPS culture (min 8, max 20). All datapoints shown with error bars highlighting means ± SD, all data from a minimum of three independent cultures: all comparisons were made to NASH + TGFβ control samples.
# Cytokine profiles in cell culture medium samples were also analysed by Luminex array for determination of 38 analytes in total, consisting of cytokines, chemokines, and growth factors using the MILLIPLEX MAP Human Cytokine/Chemokine Magnetic Bead Panel - Premixed 38 Plex (Merck Millipore, USA).
# Liver microtissues were cultured for 4 days in HEP-FAT medium, before dosing with obeticholic acid or elafibranor. Both compounds were dissolved in DMSO, diluted in cell culture medium (final DMSO concentration ≤1%) and added to microtissues during a full medium change every two days and in addition on the intervening days compounds were spiked into the media to increase drug concentration back to desired concentrations. Cultures were maintained in the presence of the compound, for a total of 10 days in the presence or absence of TGFβ.
# [2] = test system: liver MPS NASH model + TGFβ (PHH, KC and HSC co-cultures, high fat); experiment: Quantitative confocal imaging of collagen-1 and α-SMA in liver MPS NASH model with TGFβ (Fig 6c); assay type: cell-based, human; settings: for Collagen 1 - fluroscence intensity / aSMA - fluroscence intensity: NASH + TGF, individual replicates, listed as ELF
# Text: as §1, §2
# To visualise fibrosis proteins in the liver microtissues, scaffolds were fixed for 15 min in 4% paraformaldehyde following culture in the MPS platform. They were permeabilized with 0.1% Triton-X and blocked with 2% BSA before staining overnight at 4 °C with antibodies against alpha SMA (Abcam, UK - ab7817) and collagen 1 (Rockland, USA—600 401 103 0.5). Scaffolds were then stained with fluorescently conjugated secondary antibodies (Alexa-Fluor 555 goat anti-rabbit #A21429; Alexa-Fluor 647 donkey anti-rabbit #A31573; Alexa-Fluor 555 goat anti-mouse #A21424; Alexa-Fluor 647 goat anti-mouse #A21235 (Thermofisher, UK) along with Phalloidin 488 (Thermofisher, UK) and Hoechst 33342 (Invitrogen) for 1.5 h at room temperature. Scaffolds were washed three times with PBS and mounted onto glass microscope slides with anti-fade mounting medium. Confocal fluorescent images of the stained scaffolds were captured using a Cell Voyager 7000 (CV700, Yokogawa Inc.) automated confocal microscope. Image acquisition was controlled using the SearchFirst functionality of the Wako Software suite (Fujifilm Wako Automation). A workflow was designed to automatically locate and acquire images of each scaffold in a consistent and unbiased manner (Supp. Fig. 1). […]
# [3] = Non-specific compound binding: drug recovery in blank liver MPS plates (no cells), LC-MS; assay type: in vitro ADME; settings: blank liver MPS platform/plates, vs input media, read-out: Drug recovery incubation in blank MPS platform (no cells)
# [4] = NASH + TGFβ, highest concentrations
compound,measurement,setting,value
CSc1ccc(C(=O)/C=C/c2cc(C)c(OC(C)(C)C(=O)O)c(C)c2)cc1 [Elafibranor],"IL-1RA production, fold change compared to control","[1]; 1.3 µM, Day 8",0.9952 fold change
same,"IL-4 production, fold change compared to control","[1]; 1.3 µM, Day 8",1.184 fold change
same,"IL-6 production, fold change compared to control","[1]; 1.3 µM, Day 8",1.1389 fold change
same,"IL-8 production, fold change compared to control","[1]; 1.3 µM, Day 8",1.023 fold change
same,"IP-10 production, fold change compared to control","[1]; 1.3 µM, Day 8",1.0718 fold change
same,"MCP-1 production, fold change compared to control","[1]; 1.3 µM, Day 8",1.264 fold change
same,"MIP-1a production, fold change compared to control","[1]; 1.3 µM, Day 8",0.709 fold change
same,"MIP-1b production, fold change compared to control","[1]; 1.3 µM, Day 8",0.6796 fold change
same,"VEGF production, fold change compared to control","[1]; 1.3 µM, Day 8",1.105 fold change
same,"IL-1RA production, fold change compared to control","[1]; 1.3 µM, Day 14",0.9067 fold change
same,"IL-4 production, fold change compared to control","[1]; 1.3 µM, Day 14",0.6872 fold change
same,"IL-6 production, fold change compared to control","[1]; 1.3 µM, Day 14",0.5754 fold change
same,"IL-8 production, fold change compared to control","[1]; 1.3 µM, Day 14",0.6606 fold change
same,"IP-10 production, fold change compared to control","[1]; 1.3 µM, Day 14",1.038 fold change
same,"MCP-1 production, fold change compared to control","[1]; 1.3 µM, Day 14",0.8586 fold change
same,"MIP-1a production, fold change compared to control","[1]; 1.3 µM, Day 14",0.6631 fold change
same,"VEGF production, fold change compared to control","[1]; 1.3 µM, Day 14",1.4873 fold change
same,"IL-1RA production, fold change compared to control","[1]; 13 µM, Day 8",1.265 fold change
same,"IL-4 production, fold change compared to control","[1]; 13 µM, Day 8",0.7184 fold change
same,"IL-6 production, fold change compared to control","[1]; 13 µM, Day 8",1.361 fold change
same,"IL-8 production, fold change compared to control","[1]; 13 µM, Day 8",0.9806 fold change
same,"IP-10 production, fold change compared to control","[1]; 13 µM, Day 8",0.6298 fold change
same,"MCP-1 production, fold change compared to control","[1]; 13 µM, Day 8",0.7964 fold change
same,"MIP-1a production, fold change compared to control","[1]; 13 µM, Day 8",0.7122 fold change
same,"MIP-1b production, fold change compared to control","[1]; 13 µM, Day 8",0.7615 fold change
same,"VEGF production, fold change compared to control","[1]; 13 µM, Day 8",1.5043 fold change
same,"IL-1RA production, fold change compared to control","[1]; 13 µM, Day 14",1.13 fold change
same,"IL-4 production, fold change compared to control","[1]; 13 µM, Day 14",0.4238 fold change
same,"IL-6 production, fold change compared to control","[1]; 13 µM, Day 14",0.6467 fold change
same,"IL-8 production, fold change compared to control","[1]; 13 µM, Day 14",0.4814 fold change
same,"IP-10 production, fold change compared to control","[1]; 13 µM, Day 14",0.5019 fold change
same,"MCP-1 production, fold change compared to control","[1]; 13 µM, Day 14",0.7625 fold change
same,"MIP-1a production, fold change compared to control","[1]; 13 µM, Day 14",0.5355 fold change
same,"VEGF production, fold change compared to control","[1]; 13 µM, Day 14",3.124 fold change
same,"IL-1RA production, fold change compared to control","[1]; 65 µM, Day 8",0.4291 fold change
same,"IL-4 production, fold change compared to control","[1]; 65 µM, Day 8",0.5702 fold change
same,"IL-6 production, fold change compared to control","[1]; 65 µM, Day 8",0.5734 fold change
same,"IL-8 production, fold change compared to control","[1]; 65 µM, Day 8",0.6965 fold change
same,"IP-10 production, fold change compared to control","[1]; 65 µM, Day 8",0.5276 fold change
same,"MCP-1 production, fold change compared to control","[1]; 65 µM, Day 8",0.2341 fold change
same,"MIP-1a production, fold change compared to control","[1]; 65 µM, Day 8",0.4239 fold change
same,"VEGF production, fold change compared to control","[1]; 65 µM, Day 8",1.511 fold change
same,"IL-1RA production, fold change compared to control","[1]; 65 µM, Day 14",0.4779 fold change
same,"IL-4 production, fold change compared to control","[1]; 65 µM, Day 14",0.2046 fold change
same,"IL-6 production, fold change compared to control","[1]; 65 µM, Day 14",0.3326 fold change
same,"IL-8 production, fold change compared to control","[1]; 65 µM, Day 14",0.254 fold change
same,"IP-10 production, fold change compared to control","[1]; 65 µM, Day 14",0.6289 fold change
same,"MCP-1 production, fold change compared to control","[1]; 65 µM, Day 14",0.1593 fold change
same,"VEGF production, fold change compared to control","[1]; 65 µM, Day 14",2.734 fold change
same,cytokine on which the drug had the greatest effect,"[1]; NASH microtissues, high NPC, + TGFβ",MCP-1
same,Collagen 1 - fluroscence intensity,[2]; 1.3 uM,1733.28 and 2118.75 and 2931.26
same,aSMA - fluroscence intensity,[2]; 1.3 uM,730.875 and 499.771 and 815.833
same,Collagen 1 - fluroscence intensity,[2]; 13 uM,1948.99 and 2325.43
same,aSMA - fluroscence intensity,[2]; 13 uM,408.818 and 783.286
same,Collagen 1 - fluroscence intensity,[2]; 65 uM,815.347 and 1263.35 and 1286.58
same,aSMA - fluroscence intensity,[2]; 65 uM,106.491 and 171.359 and 165.195
same,reduction in collagen-1 deposition,[2]; [4],75%
same,reduction in α-SMA expression,[2]; [4],80%
same,recovery at 1 µM,[3],97%
